One series deals with HIV-1 strain 92HT599. Nature of the series: Antiviral activity: p24 estimation in MT2 cells infected with HIV-1. It is filed as cell-based. Conditions: for IC50: Human immunodeficiency virus 1, MT2; for inhibition at 0.01 µM / inhibition at 0.1 µM / inhibition at 1 µM: Human immunodeficiency virus 1, MT2 cells, HIV-1 92HT599, p24, ~96 hours. As for the experimental part:
MT2 cells were infected with HIV-1 strain 92HT599 (10 TCID 50/30000 cells). The infected cells were plated at the concentration of ˜30 000 cells per well in 96 well plate. Test compound was added to the micro plate in defined format with the final concentration of DMSO (vehicle) is not more than 1%. Incubation was carried out in CO2 incubator for ˜96 hours for viral infection. At the end of incubation period an aliquot from each well was taken for p24 estimation. The quantitation of p24 is an index for antiviral activity of the compound. Percent inhibition was calculated with reference to control values (vehicle controls). P-24 estimation was carried out using Advance biosciences kit as per the procedure detailed by supplier.

A short description of series [1]: Single dose oral pharmacokinetic study. It is filed as in vivo. Conditions: mouse, plasma; Mice oral PK @30 mg/kg. As for the experimental part: The test item was administered through oral route to animals (rat/mice) at 30 mg/kg dose in a suitable vehicle (10% Solutol+20% PEG) at 10 ml/kg dose volume. Blood samples (˜50 μL at each time point) were collected from retro-orbital plexus using K3 EDTA as anticoagulant in eppendorf tubes at defined time intervals 30 minutes, 1 hour, 2 hour, 4 hour, 8 hour, 24 hour & 48 hour under light ether anaesthesia. The samples were centrifuged at 3500×g to separate plasma and stored at −80° C. until analysis. Plasma […] for Mice were processed as per described in sample preparation.
Standard solutions of the test compound 1 mg/mL solutions were prepared in DMSO and further dilutions were made in methanol. The calibration curve samples for LCMSMS analysis were prepared by spiking 25 μl of Mice plasma with 2.5 μl and of the appropriate working standard solution to obtain final concentrations 0.078, 0.156, 0.312, 0.625, 1.25, 2.5, 5, 10, 20 & 40 µg/ml. To the test compound plasma extraction was carried out using Acetonitrile precipitation. After reconstitution with solvent (50% Acetonitrile in Buffer) samples were analyzed by LCMSMS to get the concentrations to calculate PK Parameters.

The mark [2] stands for this setting: 0% serum, read-out: Antiviral activity IC50 (nM) 0%.
Where [3] appears, read: read-out: Antiviral activity IC50 (nM) 40% serum.

Structures are written as SMILES. Where two headings read alike, the source gives them in different places.

In general, IC50 refers to the concentration that gives 50% inhibition. The term inhibition denotes the percentage by which the read-out fell short of the control. The viability is a per cent measure of how many cells are alive, often set against a control. Low values mean more harm to the cells, high ones less harm to the cells. By AUC(0-t) is commonly meant the area under the concentration-time curve up to a stated or last time point. Read a high AUC(0-t) as more exposure. Usually Cmax stands for the highest concentration seen after dosing.

Method for in vitro: On day 1 calculate the number of cells required for the assay and seed 3×10^4 cells in 200 μl per well. Weigh the compound and dissolve it in DMSO to get 10 mM stock which is further diluted to 3 mM and 1 mM. The drugs from these stocks were added to plate to get final concentration of 100 μM, 30 μM and 10 μM. […] Incubate for 4 days in 5% CO2 incubator at 37° C. On day 4, 100 μl of medium was removed from each well without disturbing the cells. Add 10 μl of MTT reagent and incubate for 4 hours at 5% CO2 incubator at 37° C. for formation of crystals. Add 200 μl of 0.1N acidic isopropanol to dissolve the crystals and read the plate at 590 nm.

Consider `CC(C)C1=C2[C@H]3CC[C@@H]4[C@@]5(C)CC[C@H](OC(=O)[C@H]6C[C@@H](C(=O)O)C6(C)C)C(C)(C)[C@@H]5CC[C@@]4(C)[C@]3(C)CC[C@@]2(C(=O)N(CCN(C)C)Cc2ccc(Cl)cc2)CC1=O` [Example 14, (1R,3S)-3-((((3aR,5aR,5bR,7aR,9S,11aR,11bR,13aS)-3a-((4-chlorobenzyl)(2-(dimethylamino)ethyl)carbamoyl)-1-isopropyl-5a,5b,8,8,11a-pentamethyl-2-oxo-3,3a,4,5,5a,5b,6,7,7a,8,9,10,11,11a,11b,12,13,13a-octadecahydro-2H-cyclopenta[a]chrysen-9-yl)oxy)carbonyl)-2,2-dimethylcyclobutane-1-carboxylic acid], for which the IC50 in the series with HIV-1 strain 92HT599 (setting [2]) is 1.72 nM. Further, the IC50 in the series with HIV-1 strain 92HT599 (setting [3]) was 9.83 nM. In the series on HIV-1 strain 92HT599, the inhibition at 0.01 µM is 100%, the inhibition at 0.1 µM was 100% and the inhibition at 1 µM was 100%. In “in vitro”, this compound gave a viability at 4 days, 10 μM of 91%; a viability at 4 days, 30 μM of 12%; a viability at 4 days, 100 μM of 12%. In series [1], this compound had an AUC(0-t) of 166 µg·h/mL and a Cmax of 9640 ng/mL.
With `CC(C)C1=C2[C@H]3CC[C@@H]4[C@@]5(C)CC[C@H](OC(=O)[C@H]6C[C@@H](C(=O)O)C6(C)C)C(C)(C)[C@@H]5CC[C@@]4(C)[C@]3(C)CC[C@@]2(C(=O)NC(C)(C)CO)CC1=O` [Example 15, (1R,3S)-3-((((3aR,5aR,5bR,7aR,9S,11aR,11bR,13aS)-3a-((1-hydroxy-2-methylpropan-2-yl)carbamoyl)-1-isopropyl-5a,5b,8,8,11a-pentamethyl-2-oxo-3,3a,4,5,5a,5b,6,7,7a,8,9,10,11,11a,11b,12,13,13a-octadecahydro-2H-cyclopenta[a]chrysen-9-yl)oxy)carbonyl)-2,2-dimethylcyclobutane-1-carboxylic acid], the IC50 in the series with HIV-1 strain 92HT599 (setting [2]) is 2.84 nM. Further, the IC50 with HIV-1 strain 92HT599 (setting [3]) was 415 nM. In the series with HIV-1 strain 92HT599, the inhibition at 0.01 µM is 97%, the inhibition at 0.1 µM is 100% and the inhibition at 1 µM is 100%. Moreover, in “in vitro”, the viability at 4 days, 10 μM was determined as 70%; the viability at 4 days, 30 μM was found to be 22%; the viability at 4 days, 100 μM came out at 6%. Also, in series [1], the AUC(0-t) is 88.7 µg·h/mL and the Cmax is 9080 ng/mL.
